Two compounds from patent US4689345A, “Oxygenated alkyl substituted bicyclo alkanes” (CBD Corporation, priority 1986, dated 1987) can be followed below.

The test system of assay [1] is Saccharomyces cerevisiae. The assay is described as follows: Fermentation: ethanol production. The assay is classed as cell-based.
The test system of assay [2] is androgen receptor. Put plainly: Androgen receptor inhibition, Torulopsis. The format is binding.
Assay [3] deals with androgen receptor. The assay is described as follows: Androgen receptor inhibition, Coccodia. The format is binding.
Assay [4] has as its system estrogen receptor. Put plainly: Estrogen receptor inhibition, Coccodia. The format is binding.
The test system of assay [5] is androgen receptor. Put plainly: Androgen receptor inhibition, Blastomyces. The format is binding.
For assay [6], the system named is progesterone receptor. Put plainly: Progesterone receptor inhibition, Blastomyces. The assay is classed as binding.
Assay [7] has as its system estrogen receptor. Put plainly: Estrogen receptor inhibition, Cryptococci. The assay is classed as binding.
The test system of assay [8] is estrogen receptor. The format is binding, Histoplasma.
Assay [9] has as its system androgen receptor. Put plainly: Androgen receptor inhibition, Pseudomonas testosteroni. The format is binding. As to conditions: DHT:anti-androgen 1:1,000.
For assay [10], the system named is progesterone receptor. Put plainly: Progesterone receptor inhibition, Pseudomonas testosteroni. The assay is classed as binding.
The test system of assay [11] is estrogen receptor. Put plainly: Effect on estrogen receptors in melanoma. The format is binding. As to conditions: 1:1000 DHT to compound.
Assay [12] concerns estrogen receptor (keloid cytosol). Put plainly: Keloid cytosol steroid binding assay, estrogen. Further details: species or system human.
Assay [13] deals with T1, progesterone receptor (keloid cytosol) (Homo sapiens, UniProt P06401).
T1 construct: [3H]promegestone (R5020) tracer
T1 sequence (P06401 whole entry): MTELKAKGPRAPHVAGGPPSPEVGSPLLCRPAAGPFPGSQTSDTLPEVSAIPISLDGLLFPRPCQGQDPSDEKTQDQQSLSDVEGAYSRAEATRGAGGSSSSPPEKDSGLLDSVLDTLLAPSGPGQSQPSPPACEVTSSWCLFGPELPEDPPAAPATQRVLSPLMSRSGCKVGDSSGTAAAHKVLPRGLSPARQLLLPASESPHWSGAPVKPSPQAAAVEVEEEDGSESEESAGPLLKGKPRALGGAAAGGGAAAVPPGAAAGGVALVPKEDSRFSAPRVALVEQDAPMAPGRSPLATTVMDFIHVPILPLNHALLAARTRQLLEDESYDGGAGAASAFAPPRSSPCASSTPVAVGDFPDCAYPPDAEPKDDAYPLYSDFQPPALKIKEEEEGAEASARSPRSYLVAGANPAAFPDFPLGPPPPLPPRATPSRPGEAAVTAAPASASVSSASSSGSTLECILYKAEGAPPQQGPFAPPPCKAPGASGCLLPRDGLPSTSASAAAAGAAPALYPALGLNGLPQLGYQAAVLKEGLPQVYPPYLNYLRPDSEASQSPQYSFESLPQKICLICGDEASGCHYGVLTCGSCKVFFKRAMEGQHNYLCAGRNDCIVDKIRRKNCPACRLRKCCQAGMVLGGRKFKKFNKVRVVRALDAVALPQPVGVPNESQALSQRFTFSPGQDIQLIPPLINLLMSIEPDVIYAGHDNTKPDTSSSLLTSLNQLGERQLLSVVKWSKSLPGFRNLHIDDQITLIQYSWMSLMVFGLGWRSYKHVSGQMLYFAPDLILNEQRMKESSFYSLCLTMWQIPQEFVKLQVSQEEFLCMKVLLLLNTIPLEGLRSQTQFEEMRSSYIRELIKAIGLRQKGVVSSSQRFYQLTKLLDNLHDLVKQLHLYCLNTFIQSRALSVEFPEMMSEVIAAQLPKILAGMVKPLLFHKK
The assay is described as follows: Keloid cytosol steroid binding assay, progesterone.

The target in assay [14] is T2, androgen receptor (Homo sapiens, UniProt P10275).
T2 sequence (P10275 1-920): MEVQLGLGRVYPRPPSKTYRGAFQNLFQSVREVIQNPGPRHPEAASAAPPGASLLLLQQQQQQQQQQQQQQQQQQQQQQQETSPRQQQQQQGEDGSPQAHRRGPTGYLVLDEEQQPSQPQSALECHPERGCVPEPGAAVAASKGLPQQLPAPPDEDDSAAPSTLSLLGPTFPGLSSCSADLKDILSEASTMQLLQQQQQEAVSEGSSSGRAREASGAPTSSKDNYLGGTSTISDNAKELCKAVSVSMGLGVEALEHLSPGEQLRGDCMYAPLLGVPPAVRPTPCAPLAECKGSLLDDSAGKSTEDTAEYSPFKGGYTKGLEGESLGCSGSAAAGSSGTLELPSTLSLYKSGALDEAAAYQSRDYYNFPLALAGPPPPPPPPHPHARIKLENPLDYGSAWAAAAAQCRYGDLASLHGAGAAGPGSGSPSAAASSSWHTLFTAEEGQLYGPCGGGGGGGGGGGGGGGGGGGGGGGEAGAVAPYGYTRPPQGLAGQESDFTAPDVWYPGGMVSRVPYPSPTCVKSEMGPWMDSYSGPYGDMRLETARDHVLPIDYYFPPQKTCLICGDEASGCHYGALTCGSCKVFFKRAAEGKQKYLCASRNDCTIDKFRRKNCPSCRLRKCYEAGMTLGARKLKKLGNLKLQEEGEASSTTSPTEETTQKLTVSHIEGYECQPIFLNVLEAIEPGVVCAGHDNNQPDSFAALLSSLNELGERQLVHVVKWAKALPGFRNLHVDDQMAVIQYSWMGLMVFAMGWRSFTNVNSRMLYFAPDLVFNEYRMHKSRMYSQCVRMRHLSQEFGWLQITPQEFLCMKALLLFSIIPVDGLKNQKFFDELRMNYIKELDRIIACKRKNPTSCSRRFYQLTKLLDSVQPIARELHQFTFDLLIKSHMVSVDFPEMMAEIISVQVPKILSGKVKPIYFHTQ
The assay is described as follows: Androgen receptor inhibition in skin/tissue fibroblast lines. The assay is classed as cell-based. More on the design: The bald skin was used for androgen receptors using the second technique described above; from tissue; host or cells: bald scalp skin of hair transplantation volunteers. As to conditions: DHT:compound 1:1,000. As to the method:
Explants of both normal and keloid skin and tissue fibroblast lines were established.
Hormonal receptor analyses on these tissues were performed by the method of Griffith et al., Journal of Clinical Investigation, Vol. 57, page 1340 (1978).

“And” between values parts separate entries of the source, which are not always exact repeats. Equal entries are not always repeated. Where two headings read alike, the source gives them in different places.

As for `CCC(O)CCCCC1CCC2CC(=O)CC12` (stereo not shown) [Compound IV], in [1] (other strains), the “depression of ethanol production” value is “one-eighth its normal rate”. Further, in assay [1] (some strains), the “increase of ethanol production” value was “as much as three times the natural rate”. The “% Androgen Receptor Inhibition” value in assay [2] came out at 77%; in [3], 67%; in assay [5], 49%; in assay [9] (strain 1), 90%; in assay [9] (strain 2), 49%; in [9] (strain 3) it was 39%. In addition, the “% Androgen Receptor Inhibition” value in assay [9] (strain 4) is 63%. In addition, the “% Estrogen Receptor Inhibition” value in assay [4], in assay [7] and in assay [8] was 0% each time. The “% Progesterone Receptor Inhibition” value in [6] amounted to 3%; in assay [10] (strain 1), 0%; in [10] (strain 2), 0%; in assay [10] (strain 3), 0%; in assay [10] (strain 4), 0%.

`CCC(CCCCC1CCC2CC(=O)CC12)OC` (stereo not shown) [Compound V, 2-(5-Methoxyhept-1-yl)bicyclo[3.3.0]octan-7-one]: in assay [11], the “effect on estrogen receptors in melanoma tissue” value is given as “no significant effect”. Also, the “effect on binding of estrogen” value in assay [12] was “no effect”. The “effect on binding of progesterone” value in assay [13] is reported as “no effect”. Besides, the “% Androgen Receptor Inhibition” value is 22% in assay [14] (forearm); 72% and 41% in assay [14] (keloid).
